Test results from patent US8575153B2 (Kowa Company, Ltd., priority 2008, dated 2013).

Biological target: Recombinant human JAK3 enzyme (JAK3 kinase region; Ala795-Ser1124) (Homo sapiens, UniProt P52333)
Test: JAK3 Kinase Assay (Kinase-Glo luminescent, ATP consumption)
Details: read-out: Inhibition rate (%) of JAK3 kinase activity
Description: Recombinant human JAK3 enzyme (JAK3 kinase region; Ala795-Ser1124) was purchased from Carna Biosciences, Inc.
The reaction was conducted in a kinase buffer (reaction volume: a total of 50 μl) containing 8 mM MOPS (pH 7.0), 0.2 mM EDTA, a test compound solution prepared to each concentration and 0.5 μg/ml JAK3 enzyme using a 96-well polystyrene plate (clear-bottom white-wall). […] After incubating them at room temperature for 2 hours, 50 μl of Kinase-Glo Luminescent Kinase Assay reagent (Promega) was added to each well, and further incubated at room temperature for 10 minutes. Using a chemiluminescence microplate reader MicroLumat LB96P (Berthold), chemiluminescence intensity was measured to quantitate the amount of ATP remaining after reaction. From the amount of ATP consumed in the phosphorylation reaction, the inhibition rate (%) of JAK3 kinase activity was determined.

Recombinant human JAK3 enzyme (JAK3 kinase region; Ala795-Ser1124), sequence (P52333 795-1124): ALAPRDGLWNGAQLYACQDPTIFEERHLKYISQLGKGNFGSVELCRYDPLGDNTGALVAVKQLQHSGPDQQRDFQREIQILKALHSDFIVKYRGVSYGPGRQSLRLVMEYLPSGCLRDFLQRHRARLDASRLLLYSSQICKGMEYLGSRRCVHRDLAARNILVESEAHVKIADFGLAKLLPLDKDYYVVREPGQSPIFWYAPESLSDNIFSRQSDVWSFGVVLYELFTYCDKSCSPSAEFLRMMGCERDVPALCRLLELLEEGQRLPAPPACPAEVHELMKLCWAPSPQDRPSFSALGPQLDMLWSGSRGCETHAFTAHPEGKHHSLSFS

Row | SMILES | inhibition at 1 µM [%]
1 | NC(=O)c1cnc(Nc2ccc(N3CCOCC3)cc2)cc1NC1CCOc2ccccc21 (stereo not drawn) [Example 351, 4-(3,4-dihydro-2H-1-benzopyran-4-ylamino)-6-[(4-morpholinophenyl)amino]pyridine-3-carboxyamide] | 45
2 | NC(=O)c1cnc(Nc2ccc(N3CCOCC3)cc2)cc1NCc1cccnc1 [Example 353, 6-[(4-morpholinophenyl)amino]-4-[(pyridin-3-ylmethyl)amino}pyridine-3-carboxyamide] | 65
3 | NC(=O)c1cnc(Nc2ccc(N3CCNCC3)cc2)cc1NCc1cccnc1 [Example 355, 6-{(4-(piperazin-1-yl)phenyl]amino}-4-[(pyridin-3-ylmethyl)amino}pyridine-3-carboxyamide] | 92
4 | CC(C)N1CCN(c2ccc(Nc3cc(NCc4cccnc4)c(C(N)=O)cn3)cc2)CC1 [Example 356, 6-({4-[4-(propan-2-yl)piperazin-1-yl]phenyl}amino)-4-[(pyridin-3-ylmethyl)amino]pyridine-3-carboxyamide] | 92
5 | CN1CCCC1CNc1cc(Nc2ccc(N3CCOCC3)cc2)ncc1C(N)=O (stereo not drawn) [Example 359, 4-{[(1-methylpyrrolidin-2-yl)methyl]amino}-6-[(4-morpholinophenyl)amino]pyridine-3-carboxyamide] | 61
6 | CC(=O)N1CCCC1CNc1cc(Nc2ccc(N3CCOCC3)cc2)ncc1C(N)=O (stereo not drawn) [Example 360, 4-{[(1-acetylpyrrolidin-2-yl)methyl]amino}-6-[(4-morpholinophenyl)amino]pyridine-3-carboxyamide] | 57
7 | NC(=O)c1cnc(Nc2ccc(N3CCOCC3)cc2)cc1NCC1CCCCC1 [Example 361, 4-[(cyclohexylmethyl)amino]-6-[(4-morpholinophenyl)amino]pyridine-3-carboxyamide] | 83
8 | NC(=O)c1cnc(Nc2ccc(N3CCOCC3)cc2)cc1NCC1CC1 [Example 362, 4-[(cyclopropylmethyl)amino]-6-[(4-morpholinophenyl)amino]pyridine-3-carboxyamide] | 40
9 | NC(=O)c1cnc(Nc2ccc(N3CCOCC3)cc2)cc1NCc1ccccn1 [Example 363, 6-[(4-morpholinophenyl)amino]-4-[(pyridin-2-ylmethyl)amino]pyridine-3-carboxyamide] | 67
10 | NC(=O)c1cnc(-n2cnc3ccccc32)cc1NCc1cc(F)cc(F)c1 [Example 365, 6-(1H-benzimidazol-1-yl)-4-[(3,5-difluorobenzyl)amino]pyridine-3-carboxyamide] | 62

Results, then the molecule that gave them:

Row | inhibition at 1 µM [%] | SMILES
11 | 9 | N#Cc1ccc2ncn(-c3cc(NCc4cc(F)cc(F)c4)c(C(N)=O)cn3)c2c1 [Example 366, 6-(6-cyano-1H-benzimidazol-1-yl)-4-[(3,5-difluorobenzyl)amino]pyridine-3-carboxyamide]
12 | 13 | Cc1ccc(S(=O)(=O)n2cc(-c3cc(NCc4cc(F)cc(F)c4)c(C(N)=O)cn3)c3cccnc32)cc1 [Example 370, 4-[(3,5-difluorobenzyl)amino]-6-{1-[(4-methylphenyl)sulfonyl}-1H-pyrrolo[2,3-b]pyridin-3-yl}pyridine-3-carboxyamide]
13 | 42 | NC(=O)c1cnc(-c2c[nH]c3ncccc23)cc1NCc1cc(F)cc(F)c1 [Example 371, 4-[(3,5-difluorobenzyl)amino]-6-(1H-pyrrolo[2,3-b]pyridin-3-yl)pyridine-3-carboxyamide]
14 | 31 | NC(=O)c1cnc(Nc2ccncc2)cc1NCc1ccccc1 [Example 372, 4-benzylamino-6-(pyridin-4-ylamino) pyridine-3-carboxyamide]
15 | 81 | NC(=O)c1cnc(Nc2ccc(N3CCOCC3)nc2)cc1NCc1ccccc1 [Example 373, 4-benzylamino-6-[(6-morpholinopyridin-3-yl)amino]pyridine-3-carboxyamide]
